PMC10823475, “Design, Synthesis, and Evaluation of Inhibitors of Hedgehog Acyltransferase” (Journal of Medicinal Chemistry, 2024)
Several values for one entry are separate records, joined by “and”; a condition that tells them apart may be missing. Equal values may be shown once.

How the values were obtained:
[1] = MTS assay, cytotoxicity (72 h); type: cell-based; conditions: human, HEK293a SHH+ cells, 72 h; for CC50 at 72 h: read-out: MTS Assay (HEK293a SHH+) CC50 (CI95)
Summary of the method: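 Cells plated at 5000/well, cultured 24 h, then exposed to analogues (0.14–100 μM final) in DMEM/10% FBS for 72 h. MTS/PMS added for 3 h at 37 °C and absorbance read at 490 nm; data normalised to DMSO vehicle and puromycin (2 μg/mL) wells, curves fitted with a variable-slope sigmoidal model.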

purified HHAT = target: T1, purified HHAT (Homo sapiens, UniProt Q5VTY9); assay: Acyl-cLIP assay, inhibition of purified HHAT; type: biochemical; conditions: for LLEAcyl-cLIP: from Acyl-cLIP IC50 and clogDpH7.4; for IC50: purified HHAT, read-out: Acyl-cLIP Assay IC50 (CI95); for fold more potent than analogues 19, 32, and 34: meta-methyl on 4-position aromatic ring
T1 construct: made in house
T1 sequence (Q5VTY9 whole entry): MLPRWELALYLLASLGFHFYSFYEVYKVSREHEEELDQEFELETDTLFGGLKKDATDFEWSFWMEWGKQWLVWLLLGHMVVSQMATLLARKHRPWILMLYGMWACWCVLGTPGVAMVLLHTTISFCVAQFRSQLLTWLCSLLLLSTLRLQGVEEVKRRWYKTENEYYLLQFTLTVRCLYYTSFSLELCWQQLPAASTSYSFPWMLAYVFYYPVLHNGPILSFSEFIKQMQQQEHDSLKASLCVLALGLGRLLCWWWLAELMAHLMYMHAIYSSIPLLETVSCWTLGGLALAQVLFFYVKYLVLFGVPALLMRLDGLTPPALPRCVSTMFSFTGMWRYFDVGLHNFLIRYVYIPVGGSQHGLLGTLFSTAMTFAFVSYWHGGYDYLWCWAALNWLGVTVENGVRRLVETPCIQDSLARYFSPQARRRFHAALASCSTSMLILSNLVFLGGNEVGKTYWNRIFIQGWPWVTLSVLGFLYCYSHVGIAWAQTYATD
Summary of the method: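 Fluorescence polarization of FAM-labelled SHH N-terminal peptide palmitoylated by DDM-solubilized purified recombinant HHAT with palmitoyl-CoA, pH 6.5 MES buffer, read over 30 min. Initial rates normalized to DMSO and no-enzyme controls; IC50 from variable-slope sigmoidal fit of 1:1 serial dilutions; single-point % inhibition at 50 and 25 μM.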

Structure (SMILES)	inhibition at 25 µM (purified HHAT) [%]	inhibition at 50 µM (purified HHAT) [%]	LLEAcyl-cLIP (purified HHAT)	IC50 (purified HHAT)	fold more potent than analogues 19, 32, and 34 (purified HHAT)	HHAT inhibition in the acyl-cLIP assay (purified HHAT)	fold increase in potency compared to racemate (purified HHAT; enantiomer vs racemate (29 vs 21, 30 vs 24, 43 vs 39)) [fold]	CC50 at 72 h [1] [µM]	viability at 72 h, 12.5 µM [1] [%]	viability at 72 h, 25 µM [1] [%]
C=CCNCC(=O)N1CCc2sccc2C1COc1ccc(Cl)cc1 (stereo not shown) [Compound 2]	73 ± 9	87 ± 2	2.48	5.76 µM	–	–	–	35.9	56 ± 3	50 ± 2
CC(=O)N1CCc2sccc2C1c1ccccc1 (stereo not shown) [Compound 5]	66 ± 7	85 ± 5	2.39	5.3 µM and 5.34 µM	–	–	–	13.9	73 ± 2	76 ± 4
CCC(C)CNCC(=O)N1CCc2sccc2C1c1cccc(C)c1 (stereo not shown) [Compound 17]	93 ± 7	88 ± 2	2.91	2.13 µM	2–5 fold	–	–	40.7	42 ± 3	55 ± 1

The next lines start with results.

inhibition at 25 µM (purified HHAT) [%]	inhibition at 50 µM (purified HHAT) [%]	LLEAcyl-cLIP (purified HHAT)	IC50 (purified HHAT)	fold more potent than analogues 19, 32, and 34 (purified HHAT)	HHAT inhibition in the acyl-cLIP assay (purified HHAT)	fold increase in potency compared to racemate (purified HHAT; enantiomer vs racemate (29 vs 21, 30 vs 24, 43 vs 39)) [fold]	Structure (SMILES)	CC50 at 72 h [1] [µM]	viability at 72 h, 12.5 µM [1] [%]	viability at 72 h, 25 µM [1] [%]
96 ± 1	103 ± 1	4.20	2.58 µM	2–5 fold	–	–	CCC(C)CNCC(=O)N1CCc2sccc2C1c1cccc(C)n1 (stereo not shown) [Compound 22]	> 50	92 ± 1	89 ± 3
91 ± 4	95 ± 4	4.90	1.33 µM	–	–	–	Cc1cccc(C2c3ccsc3CCN2C(=O)CNCC(C)C)n1 (stereo not shown) [Compound 24]	> 50	88 ± 3	80 ± 3
13 ± 4	18 ± 2	–	> 100 µM	–	no inhibitory activity	–	Cc1cccc([C@@H]2c3ccsc3CCN2C(=O)CNCC(C)C)n1 [Compound 28]	> 100	108 ± 7	105 ± 4
92 ± 4	95 ± 4	5.14	< 10 µM	–	–	2	Cc1cccc([C@H]2c3ccsc3CCN2C(=O)CNCC(C)C)n1 [Compound 30]	> 50	101 ± 6	98 ± 5
